Assay results reported in US11053212B2, “Benzimidazole derivatives as bromodomain inhibitors” (GLAXOSMITHKLINE INTELLECTUAL PROPERTY DEVELOPMENT LIMITED, priority 2015, dated 2021).
Where a name gives a salt, the structure may show the parent alone.

Each compound was assayed against T1, BRD4 BD2 (Homo sapiens, UniProt O60885, Y97A) (assay: TR-FRET binding assay, BRD4 BD2 (mutant protein)). Settings: 10 nM mutated bromodomain protein, Alexa Fluor647 ligand at Kd, read-out: mean pIC50 in the BRD4 BD2 assay (converted).
T1 construct: BRD4 (1-477) (Y97A) and (Y390A); made in house; host or cells: E. coli (pET15b vector)
Experimental: Biological Data Time Resolved Fluorescence Resonance Energy Transfer (TR-FRET) Assay
Binding was assessed using a time resolved fluorescent resonance energy transfer binding assay. This utilises a 6 His purification tag at the N-terminal of the proteins as an epitope for an anti-6 His antibody labeled with Europium chelate (PerkinElmer AD0111) allowing binding of the Europium to the proteins which acts as the donor fluorophore.
In the absence of a competing compound, excitation of the Europium causes the donor to emit at λ618 nm which excites the Alexa labelled bromodomain binding compound leading to an increased energy transfer that is measurable at λ647 nM. In the presence of a sufficient concentration of a compound that can bind these proteins, the interaction is disrupted leading to a quantifiable drop in fluorescent resonance energy transfer.
The binding of compounds of the invention to Bromodomains BRD2, BRD3, BRD4 and BRDT was assessed using mutated proteins to detect differential binding to either Binding Domain 1 (BD1) or Binding Domain 2 (BD2) on the bromodomain. […] Therefore in the final assay conditions, binding of the fluoroligand to the mutated domain cannot be detected and subsequently the assay is suitable to determine the binding of compounds to the single non-mutated bromodomain.
Recombinant Human Bromodomains [(BRD2 (1-473) (Y113A) and (Y386A), BRD3 (1-435) (Y73A) and (Y348A) BRD4 (1-477) (Y97A) and (Y390A) and BRDT (1-397) (Y66A) and (Y309A)] were expressed in E coli cells (in pET15b vector for BRD2/3/4 and in pET28a vector for BRDT) with a 6-His tag at the N-terminal. The His-tagged Bromodomain pellet was resuspended in 50 mM HEPES (pH7.5), 300 mM NaCl, 10 mM imidazole & 1 μl/ml protease inhibitor cocktail and extracted from the E coli cells using sonication and purified using a nickel sepharose high performance column, the proteins were washed and then eluted with a linear gradient of 0-500 mM imidazole with buffer 50 mM HEPES (pH7.5), 150 mM NaCl, 500 mM imidazole, over 20 column volumes. Final purification was completed by Superdex 200 prep grade size exclusion column. Purified protein was stored at −80° C. in 20 mM HEPES pH 7.5 and 100 mM NaCl.
All assay components were dissolved in buffer composition of 50 mM HEPES pH7.4, 50 mM NaCl, 5% Glycerol, 1 mM DTT and 1 mM CHAPS. The final concentration of bromodomain proteins were 10 nM and the Alexa Fluor647 ligand was at Kd. These components were premixed and 5 μl of this reaction mixture was added to all wells containing 50 nl of various concentrations of test compound or DMSO vehicle (0.5% DMSO final) in Greiner 384 well black low volume microtitre plates and incubated in dark for 30 minutes at rt. […] of detection mixture containing 1.5 nM final concentration anti-6His Europium chelate was added to all wells and a further dark incubation of at least 30 minutes was performed. Plates were then read on the Envision plate reader, (⋅ex=317 nm, donor ⋅em=615 nm; acceptor ⋅em=665 nm; Dichroic LANCE dual). Time resolved fluorescent intensity measurements were made at both emission wavelengths and the ratio of acceptor/donor was calculated and used for data analysis. All data was normalized to the mean of 16 high (inhibitor control—Example 11 of WO 2011/054846A1) and 16 low (DMSO) control wells on each plate. A four parameter curve fit of the following form was then applied: y=a+((b−a)/(1+(10^x/10^c)^d) Where ‘a’ is the minimum, […], ‘c’ is the pIC50 and […].

Row | Structure (SMILES) | IC50 [µM]
1 | Cc1cc(-c2nc3cc(CN[C@@H](CC(C)C)C(=O)O)ccc3n2CCCO)c[nH]c1=O [Example 21, (S)-2-(((1-(3-hydroxypropyl)-2-(5-methyl-6-oxo-1,6-dihydropyridin-3-yl)-1H-benzo[d]imidazol-5-yl)methyl)amino)-4-methylpentanoic acid, hydrochloride] | > 50.1
2 | Cc1cc(-c2nc3cc(CN[C@@H](CC(C)C)C(=O)O)ccc3n2C)c[nH]c1=O [Example 24, (S)-4-methyl-2-(((1-methyl-2-(5-methyl-6-oxo-1,6-dihydropyridin-3-yl)-1H-benzo[d]imidazol-5-yl)methyl)amino)pentanoic acid, hydrochloride] | > 50.1
3 | Cc1cc(-c2nc3cc(CN[C@@H](CC(C)C)C(=O)O)ccc3n2CC2CCN(C)CC2)c[nH]c1=O [Example 48, (S)-4-methyl-2-(((2-(5-methyl-6-oxo-1,6-dihydropyridin-3-yl)-1-((1-methylpiperidin-4-yl)methyl)-1H-benzo[d]imidazol-5-yl)methyl)amino)pentanoic acid, bis hydrochloride] | > 50.1
4 | Cc1cc(-c2nc3cc(CN[C@@H](CC(C)C)C(=O)O)ccc3n2C2CCN(C)CC2)c[nH]c1=O [Example 60, (S)-4-methyl-2-(((2-(5-methyl-6-oxo-1,6-dihydropyridin-3-yl)-1-(1-methylpiperidin-4-yl)-1H-benzo[d]imidazol-5-yl)methyl)amino)pentanoic acid, bis-hydrochloride] | > 50.1

These compounds were tested against T2, recombinant human CES1 (Homo sapiens, UniProt P23141) (assay: Hydrolysis by hCES-1 (HPLC assay)). Settings: 50 μM test compound, 50 nM CES1, 20° C., pH 7.5.
T2 construct: Recombinant human CES1 (Gly18-Glu563, bearing a polyhistidine tag at the C-terminus); polyhistidine (C); purchased Novoprotein, Summit, N.J., USA C450; host or cells: human cells
T2 sequence (P23141 18-563): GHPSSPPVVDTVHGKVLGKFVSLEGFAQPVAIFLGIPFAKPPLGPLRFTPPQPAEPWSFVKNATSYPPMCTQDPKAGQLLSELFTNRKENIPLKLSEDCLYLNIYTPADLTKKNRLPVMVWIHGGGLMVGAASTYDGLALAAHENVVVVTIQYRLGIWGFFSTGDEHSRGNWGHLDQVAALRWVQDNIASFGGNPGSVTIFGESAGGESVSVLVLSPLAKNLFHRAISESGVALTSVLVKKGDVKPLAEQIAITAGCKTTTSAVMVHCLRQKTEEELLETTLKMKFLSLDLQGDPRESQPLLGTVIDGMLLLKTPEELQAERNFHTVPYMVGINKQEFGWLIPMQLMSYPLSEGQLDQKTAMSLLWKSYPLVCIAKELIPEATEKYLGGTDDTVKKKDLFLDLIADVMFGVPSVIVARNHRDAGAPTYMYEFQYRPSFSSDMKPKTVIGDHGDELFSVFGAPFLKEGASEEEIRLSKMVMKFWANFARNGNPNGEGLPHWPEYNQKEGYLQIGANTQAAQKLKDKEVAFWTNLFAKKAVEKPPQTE
Format: in vitro ADME
Experimental: Hydrolysis of ESM-containing BET inhibitors by carboxylesterase 1 (CES1) is one aspect of delivering a targeted molecule. Rates of hydrolysis of certain compounds of the invention by recombinant human CES1 were determined using an HPLC assay. Recombinant human CES1 (Gly18-Glu563, bearing a polyhistidine tag at the C-terminus) expressed in human cells and purified to homogeneity was obtained from Novoprotein, Summit, N.J., USA (catalogue number C450). Reactions were run in 384 well plates at 20° C. in a buffer of 50 mM sodium phosphate pH 7.5/100 mM NaCl.
Assays used a fixed concentration of test compound (50 μM) and CES1 (50 nM) and a time course of the reaction was obtained by stopping samples at increasing times by addition of formic acid to lower the pH. Stopped samples were subsequently analysed by HPLC to resolve product acid from unhydrolysed ester, using a 50×2 mm C18 5 μM reversed-phase column (Phenomenex Gemini) at a flow rate of 1 ml/min using a gradient of acetonitrile in water, containing 0.1% formic acid. Chromatography was monitored using absorbance at 300 nm wavelength. The % of product formed was determined using integrated peak areas and used to determine the initial rate of the reaction. The specific activity of the CES1 against each test compound under these conditions (in units of μM/min/μM) was obtained by dividing the initial rate of the reaction by the CES1 concentration.

Row | Structure (SMILES) | rate of hydrolysis (specific activity of CES1 against test compound)
5 | Cc1cc(-c2nc3cc(CN[C@H](C(=O)OCC(C)C)[C@@H](C)O)ccc3n2C[C@H]2CN(C)CCO2)cn(C)c1=O (single isomer, unassigned) [Example 162a] | no detectable level of hydrolysis
6 | Cc1cc(-c2nc3cc(CN[C@H](C(=O)OC4CCCC4)C(C)C)ccc3n2CC2CCOCC2)c[nH]c1=O [Example 16, (S)-cyclopentyl 3-methyl-2-(((2-(5-methyl-6-oxo-1,6-dihydropyridin-3-yl)-1-((tetrahydro-2H-pyran-4-yl)methyl)-1-benzo[d]imidazol-5-yl)methyl)amino)butanoate] | no detectable level of hydrolysis
7 | Cc1cc(-c2nc3cc(CN[C@H](C(=O)OC4CCCC4)[C@@H](C)O)ccc3n2CC2CCOCC2)c[nH]c1=O [Example 138, (2S,3R)-cyclopentyl 3-hydroxy-2-(((2-(5-methyl-6-oxo-1,6-dihydropyridin-3-yl)-1-((tetrahydro-2H-pyran-4-yl)methyl)-1H-benzo[d]imidazol-5-yl)methyl)amino)butanoate] | no detectable level of hydrolysis
8 | Cc1cc(-c2nc3cc(CN[C@H](C(=O)OC4CCCC4)[C@@H](C)O)ccc3n2CC2CCOCC2)cn(C)c1=O [Example 156, (2S,3R)-cyclopentyl 2-(((2-(1,5-dimethyl-6-oxo-1,6-dihydropyridin-3-yl)-1-((tetrahydro-2H-pyran-4-yl)methyl)-1H-benzo[d]imidazol-5-yl)methyl)amino)-3-hydroxybutanoate] | no detectable level of hydrolysis
9 | Cc1cc(-c2nc3cc(CN[C@H](C(=O)OC(C)(C)C)[C@@H](C)O)ccc3n2CC2CCOCC2)cn(C)c1=O [Example 212, (2S,3R)-tert-butyl 2-(((2-(1,5-dimethyl-6-oxo-1,6-dihydropyridin-3-yl)-1-((tetrahydro-2H-pyran-4-yl)methyl)-1H-benzo[d]imidazol-5-yl)methyl)amino)-3-hydroxybutanoate] | no detectable level of hydrolysis
10 | Cc1cc(-c2nc3cc(CN[C@H](C(=O)O[C@H]4CCOC4)[C@@H](C)O)ccc3n2CC2CCOCC2)cn(C)c1=O [Example 214] | no detectable level of hydrolysis
11 | COC[C@H](C)n1c(-c2cc(C)c(=O)n(C)c2)nc2cc(CN[C@H](C(=O)O[C@H]3CCOC3)[C@@H](C)O)ccc21 [Example 216] | no detectable level of hydrolysis
